According to ChEMBL document CHEMBL3272121, “Hypolipidemic analogues of ethyl 4-benzyloxybenzoate” (J Med Chem, 1977):
Structures can show the parent of a compound that is named as a salt.

Legend:
Liver [1] = assay: Inhibition of fatty acid biosynthesis from [1-14C]acetate in rat liver slices at 5 X 10^-4 M relative to control; assay type: functional
Rattus norvegicus [2] = assay: Hypolipidemic activity in CFY Sprague-Dawley rat assessed as liver lipid per gm of liver at 0.25% dietary level administered for 7 days relative to control; assay type: functional
Rattus norvegicus [3] = assay: Hypolipidemic activity in CFY Sprague-Dawley rat assessed as serum cholesterol level at 0.25% dietary level administered for 7 days relative to control; assay type: functional
Rattus norvegicus [4] = assay: Hypolipidemic activity in CFY Sprague-Dawley rat assessed as serum triglyceride level at 0.25% dietary level administered for 7 days relative to control; assay type: functional
Rattus norvegicus [5] = assay: Toxicity in CFY Sprague-Dawley rat assessed as relative liver weight at 0.25% dietary level administered for 7 days relative to control; assay type: organism-based; conditions: in vivo, po, 168 h
Liver [6] = assay: Inhibition of cholesterol biosynthesis from [1-14C]acetate in rat liver slices at […] relative to control; assay type: functional
Rattus norvegicus [7] = assay: Toxicity in CFY Sprague-Dawley rat assessed as body weight gain at 0.25% dietary level administered for 7 days relative to control; assay type: organism-based; conditions: in vivo, po, 168 h

| SMILES | inhibition at 500 µM (Liver [1]) | Activity (Rattus norvegicus [2]) | Activity (Rattus norvegicus [3]) | Activity (Rattus norvegicus [4]) | Activity (Rattus norvegicus [5]) | inhibition at 500 µM (Liver [6]) | Activity (Rattus norvegicus [7]) |
| --- | --- | --- | --- | --- | --- | --- | --- |
| CCOC(=O)c1ccc(OCc2ccc(F)cc2)cc1 | 12% | 1% | -31% | -48% | 8% | 86% | 9% |
| CCCc1ccc(OCc2ccccc2)c(OC)c1 | 3% | 4% | 15% | 12% | 17% | 34% | 0% |
| CCOC(=O)c1ccc(OCc2cccc([N+](=O)[O-])c2)cc1 | 47% |  | -7% | -28% | -4% | 54% | -29% |
| CCCC(C(=O)OCCN(CC)CC)(c1ccccc1)c1ccccc1 [PROADIFEN HYDROCHLORIDE] | 62% |  |  |  |  | 86% |  |
| Cc1ccc(OCc2ccccc2)cc1 | 43% |  | -19% | -19% | 29% | 67% | -7% |
| CCOC(=O)c1ccc(OCc2ccc(C)c(C)c2)cc1 | 94% | 13% | -19% | -47% | 10% | 97% | -7% |
| CCOC(=O)c1ccc(OCc2cccc(F)c2)cc1 |  | 1% | -19% | -60% | -4% |  | -1% |
| CCOC(=O)c1ccc(OCc2ccc(Cl)cc2)cc1 |  | 10% | -12% | -53% | 6% |  | -7% |
| CCOC(=O)c1ccc(COc2ccc(C)cc2)cc1 |  | 13% | -20% | -41% | 4% |  | 5% |
| CCOC(=O)c1ccc(OCc2cccc(Cl)c2)cc1 |  | -2% | -19% | -6% | 10% |  | -1% |
| CCOC(=O)c1ccc(OCc2cc(Cl)ccc2Cl)cc1 |  | 22% | -25% | -56% | 13% |  | 4% |
| CCOC(=O)Cc1ccc(OCc2ccc(Cl)cc2)cc1 | 59% | 8% | -28% | -91% | 14% | 68% | -10% |
| CCOC(=O)c1ccc(OCc2cccc(C(F)(F)F)c2)cc1 | 92% |  | -11% | 8% | 9% | 99% | 12% |
| CCOC(=O)c1ccc(OCc2ccc(I)cc2)cc1 |  | 3% | -18% | -60% | 11% |  | 7% |
| O=C(O)c1ccc(OCc2ccc(F)cc2)cc1 |  | 8% | -28% | -49% | 2% |  | -3% |
| CCOC(=O)c1ccc(OCc2ccccc2[N+](=O)[O-])cc1 | 69% | 3% | -20% | -21% | 12% | 82% | 8% |
| CCOC(=O)c1ccc(OCc2cc(C)ccc2C)cc1 | 55% |  | -12% | -49% | -9% | 93% | -21% |
| N#Cc1ccc(OCc2ccc(F)cc2)cc1 |  | 7% | -17% | 1% | 20% |  | 6% |
| CCCCCCCCCc1ccc(OCc2ccccc2)cc1 | 60% |  | -12% | -67% | -5% | 67% | -41% |
| CCOCCOC(=O)c1ccc(OCc2ccccc2)cc1 |  | 0% | -17% | -51% | 10% |  | 10% |
| CCc1ccc(OCc2ccccc2)cc1 |  | -6% | -17% | -57% | 20% |  | -3% |
| CCOC(=O)Cc1ccc(OCc2cccc(F)c2)cc1 |  | 9% | -37% | -71% | 18% |  | -17% |
| CCOC(=O)c1ccc(OCc2cccc(C)c2)cc1 | 82% |  | -18% | -54% | -2% | 97% | -10% |
| CCOC(=O)c1ccc(OCc2ccccc2OC)cc1 |  | 7% | -13% | -42% | -2% |  | -10% |
| CCOC(=O)Cc1cccc(OCc2ccccc2OC)c1 |  | 9% | -16% | -13% | 34% |  | 17% |
| Cc1ccc(COc2ccc(C#N)cc2)cc1 |  | 14% | -19% | -58% | 27% |  | -29% |
| COC(=O)c1ccc(OCc2ccccc2)cc1 |  | 4% | -19% | -51% | 15% |  | -14% |
| CCOC(=O)Cc1ccc(OCc2ccc(F)cc2)cc1 |  | 11% | -29% | -71% | 19% |  | 3% |
| CCOC(=O)Cc1ccc(OCc2ccccc2)cc1 | 100% | 65% | -18% | -84% | 28% | 93% | -23% |
